We go through 12 molecules from ChEMBL document CHEMBL1287762, “Synthesis and biological evaluation of 3-[4-(amino/methylsulfonyl)phenyl]methylene-indolin-2-one derivatives as novel COX-1/2 and 5-LOX inhibitors” (Bioorg Med Chem Lett, 2010).

Structures can show the parent of a compound that is named as a salt.

The inhibition in vivo is the relative decrease from the control value, in per cent. Usually IC50 stands for the point on the concentration scale where inhibition reaches its midpoint.

For data set [1], the system named is Rattus norvegicus. The data set is described as follows: Ulcerogenic effect in Wistar rat assessed as gastric ulcer area at 13 mg/kg, po administered for 7 days by microscopy. Format: toxicity, organism-based, Stomach. Also on record: dose 13 mg/kg, route oral. Particulars: in vivo, 168 h.
The subject of data set [2] is Rattus norvegicus. Kind of data set: Antiinflammatory activity in Wistar rat assessed as inhibition of carrageenan-induced paw edema at 13 mg/kg, po administered 1 hr before carrageenan challenge measured at 1 hr by plethysmometer. Format: functional. A general note: The carrageenan paw model is a standard test of acute inflammation.
Data set [3] is described as follows: Inhibition of 5-LOX in rabbit peripheral venous blood assessed as formation of […] after 30 mins by HPLC. Format: tissue-based, Oryctolagus cuniculus.
For a further data set, the species on record is Oryctolagus cuniculus. Kind of data set: Selectivity ratio, IC50 for COX-1in rabbit peripheral venous blood to IC50 for COX-2 in rabbit peripheral venous blood. It is filed as tissue-based.
The test system of data set [4] is Rattus norvegicus. The data set is described as follows: Antiinflammatory activity in Wistar rat assessed as inhibition of carrageenan-induced paw edema at 1 mg/kg, po administered 1 hr before carrageenan challenge measured at 3 hrs by plethysmometer. It is filed as functional.
Data set [5] deals with Mus musculus. Kind of data set: Analgesic activity in BALB/c mouse assessed as inhibition of acetic acid-induced writhing response for 15 mins at 26 mg/kg, po. Particulars: 0.25 h. Format: functional. On the technique in general: An intraperitoneal irritant provokes the stretching counted in writhing tests.
Data set [6] relates to Rattus norvegicus. Kind of data set: Antiinflammatory activity in Wistar rat assessed as inhibition of carrageenan-induced paw edema at 13 mg/kg, po administered 1 hr before carrageenan challenge measured at 6 hrs by plethysmometer. It is filed as functional.
In data set [7] the target is T1, Prostaglandin G/H synthase 2 (Oryctolagus cuniculus, UniProt O02768).
T1 sequence (O02768 whole entry): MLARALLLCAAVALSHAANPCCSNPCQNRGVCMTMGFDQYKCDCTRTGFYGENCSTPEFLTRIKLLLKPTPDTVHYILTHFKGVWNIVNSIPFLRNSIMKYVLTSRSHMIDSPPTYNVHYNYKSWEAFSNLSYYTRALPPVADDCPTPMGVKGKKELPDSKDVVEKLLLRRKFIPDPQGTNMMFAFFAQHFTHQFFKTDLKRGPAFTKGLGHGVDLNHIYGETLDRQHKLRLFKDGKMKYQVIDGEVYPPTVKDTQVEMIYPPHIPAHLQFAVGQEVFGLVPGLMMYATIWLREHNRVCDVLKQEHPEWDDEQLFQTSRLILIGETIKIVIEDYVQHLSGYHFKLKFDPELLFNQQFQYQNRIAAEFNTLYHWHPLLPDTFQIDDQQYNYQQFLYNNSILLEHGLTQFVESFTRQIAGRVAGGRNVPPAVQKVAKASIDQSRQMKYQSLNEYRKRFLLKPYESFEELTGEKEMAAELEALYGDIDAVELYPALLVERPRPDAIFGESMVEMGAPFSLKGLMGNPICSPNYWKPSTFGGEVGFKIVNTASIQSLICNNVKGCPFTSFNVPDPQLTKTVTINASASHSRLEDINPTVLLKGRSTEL
The data set is described as follows: Inhibition of COX-2 in rabbit peripheral venous blood assessed as formation of 12-hydroxyheptadecatrienoic acid after 24 hrs in by HPLC presence of calcium ionophore […] and lipopolysaccharide. Format: tissue-based.

In data set [8] the target is T2, Prostaglandin G/H synthase 1 (Oryctolagus cuniculus, UniProt O97554).
T2 sequence (O97554 whole entry): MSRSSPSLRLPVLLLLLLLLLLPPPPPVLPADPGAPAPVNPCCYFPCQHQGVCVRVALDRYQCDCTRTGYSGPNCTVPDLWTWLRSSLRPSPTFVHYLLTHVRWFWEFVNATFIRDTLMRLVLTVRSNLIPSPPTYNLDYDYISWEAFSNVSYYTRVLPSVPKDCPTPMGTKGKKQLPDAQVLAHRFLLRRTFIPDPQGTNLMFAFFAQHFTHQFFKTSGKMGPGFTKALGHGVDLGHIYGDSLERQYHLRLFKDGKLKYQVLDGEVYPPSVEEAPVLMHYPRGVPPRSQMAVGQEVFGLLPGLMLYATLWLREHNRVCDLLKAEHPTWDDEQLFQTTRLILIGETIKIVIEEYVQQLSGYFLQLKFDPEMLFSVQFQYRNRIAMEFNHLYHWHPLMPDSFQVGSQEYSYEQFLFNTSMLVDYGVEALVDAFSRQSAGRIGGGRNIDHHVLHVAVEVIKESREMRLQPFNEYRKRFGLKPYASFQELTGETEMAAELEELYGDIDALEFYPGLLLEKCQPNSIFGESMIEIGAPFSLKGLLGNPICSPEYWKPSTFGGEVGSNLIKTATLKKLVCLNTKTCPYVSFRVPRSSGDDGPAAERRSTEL
The data set is described as follows: Inhibition of COX-1 in rabbit peripheral venous blood assessed as formation of 12-hydroxyheptadecatrienoic acid after 24 hrs by HPLC in presence of calcium ionophore A23187.

Data set [9] deals with Mus musculus. Kind of data set: Analgesic activity in BALB/c mouse assessed as inhibition of acetic acid-induced writhing response for 15 mins at 20.76 mg/kg, po. It is filed as functional. Particulars: 0.25 h.
The subject of data set [10] is Rattus norvegicus. Kind of data set: Antiinflammatory activity in Wistar rat assessed as inhibition of carrageenan-induced paw edema at 10.38 mg/kg, po administered 1 hr before carrageenan challenge measured at 6 hrs by plethysmometer. It is filed as functional.
The test system of data set [11] is Rattus norvegicus. Kind of data set: Ulcerogenic effect in Wistar rat assessed as gastric ulcer area at 10.38 mg/kg, po administered for 7 days by microscopy. Also on record: dose 10.38 mg/kg, route oral. Format: toxicity, organism-based, Stomach. Particulars: in vivo, 168 h.
Data set [12] concerns Rattus norvegicus. The data set is described as follows: Antiinflammatory activity in Wistar rat assessed as inhibition of carrageenan-induced paw edema at 10.38 mg/kg, po administered 1 hr before carrageenan challenge measured at 3 hrs by plethysmometer. It is filed as functional.
For data set [13], the system named is Rattus norvegicus. The data set is described as follows: Antiinflammatory activity in Wistar rat assessed as inhibition of carrageenan-induced paw edema at 10.38 mg/kg, po administered 1 hr before carrageenan challenge measured at 1 hr by plethysmometer. It is filed as functional.
Data set [14] has as its system Rattus norvegicus. The data set is described as follows: Ulcerogenic effect in Wistar rat assessed as gastric ulcer area at 10.12 mg/kg, po administered for 7 days by microscopy. It is filed as toxicity, organism-based, Stomach. Also on record: dose 10.12 mg/kg, route oral. Particulars: in vivo, 168 h.
In data set [15] the test system is Mus musculus. The data set is described as follows: Analgesic activity in BALB/c mouse assessed as inhibition of acetic acid-induced writhing response for 15 mins at 20.24 mg/kg, po. It is filed as functional. Conditions: 0.25 h.
Data set [16] relates to Rattus norvegicus. Kind of data set: Antiinflammatory activity in Wistar rat assessed as inhibition of carrageenan-induced paw edema at 10.12 mg/kg, po administered 1 hr before carrageenan challenge measured at 1 hr by plethysmometer. It is filed as functional.
The test system of data set [17] is Rattus norvegicus. Kind of data set: Antiinflammatory activity in Wistar rat assessed as inhibition of carrageenan-induced paw edema at 10.12 mg/kg, po administered 1 hr before carrageenan challenge measured at 3 hrs by plethysmometer. It is filed as functional.
Data set [18] relates to Rattus norvegicus. Kind of data set: Antiinflammatory activity in Wistar rat assessed as inhibition of carrageenan-induced paw edema at 10.12 mg/kg, po administered 1 hr before carrageenan challenge measured at 6 hrs by plethysmometer. Format: functional.
In data set [19] the test system is Mus musculus. Kind of data set: Analgesic activity in BALB/c mouse assessed as inhibition of acetic acid-induced writhing response for 15 mins at 19.30 mg/kg, po. Particulars: 0.25 h. It is filed as functional.
Data set [20] concerns Rattus norvegicus. Kind of data set: Antiinflammatory activity in Wistar rat assessed as inhibition of carrageenan-induced paw edema at 9.65 mg/kg, po administered 1 hr before carrageenan challenge measured at 1 hr by plethysmometer. It is filed as functional.
The subject of data set [21] is Rattus norvegicus. The data set is described as follows: Ulcerogenic effect in Wistar rat assessed as gastric ulcer area at 9.65 mg/kg, po administered for 7 days by microscopy. It is filed as toxicity, organism-based, Stomach. Also noted: dose 9.65 mg/kg, route oral. Particulars: in vivo, 168 h.
Data set [22] relates to Rattus norvegicus. The data set is described as follows: Antiinflammatory activity in Wistar rat assessed as inhibition of carrageenan-induced paw edema at 9.65 mg/kg, po administered 1 hr before carrageenan challenge measured at 3 hrs by plethysmometer. It is filed as functional.
Data set [23] has as its system Rattus norvegicus. Kind of data set: Antiinflammatory activity in Wistar rat assessed as inhibition of carrageenan-induced paw edema at 9.65 mg/kg, po administered 1 hr before carrageenan challenge measured at 6 hrs by plethysmometer. It is filed as functional.

`CC(C)(C)c1cc(/C=C2\SC(=N)NC2=O)cc(C(C)(C)C)c1O.CS(=O)(=O)O` [DARBUFELONE MESYLATE]: in the data set on Rattus norvegicus [1], the Activity is 0.87 mm2. Also, the inhibition in vivo at 13 mg/kg in the data set with Rattus norvegicus [2] came to 19.1%; in the data set on Rattus norvegicus [6], 17.6%. Also, the IC50 in data set [3] was 0.61 µM. For the same molecule, in the data set filed under Oryctolagus cuniculus, the Ratio IC50 amounted to 342. In addition, the inhibition in vivo at 1 mg/kg with Rattus norvegicus [4] amounted to 36.1%. Further, in the data set with Mus musculus [5], the inhibition in vivo at 26 mg/kg was 86.2%.
Take `Cc1ccc2c(c1)/C(=C\c1ccc(S(C)(=O)=O)cc1)C(=O)N2`: the IC50 in [7], in [3] and in data set [8] was above 50 µM in each case.
On to `NC(=O)N1C(=O)/C(=C(\O)c2cccs2)c2cc(Cl)ccc21` [TENIDAP], for which the inhibition in vivo at 20.76 mg/kg in the data set on Mus musculus [9] stood at 70.4%. Also, the inhibition in vivo at 10.38 mg/kg in the data set with Rattus norvegicus [10] came out at 19.6%; in the data set with Rattus norvegicus [12] it was 38.9%; with Rattus norvegicus [13], 23.8%. Moreover, the IC50 in data set [3] amounted to 36.7 µM; in [8] it was 2.56 µM. In addition, the Activity in the data set on Rattus norvegicus [11] turned out to be 3.75 mm2.
Consider `CS(=O)(=O)c1ccc(/C=C2/C(=O)Nc3cc(Cl)ccc32)cc1`, for which, in the data set with Rattus norvegicus [14], the Activity was determined as 0.75 mm2. Further, the inhibition in vivo at 20.24 mg/kg in the data set on Mus musculus [15] was 55.2%. The inhibition in vivo at 10.12 mg/kg with Rattus norvegicus [16] came out at 19.4%; in the data set on Rattus norvegicus [17], 23.8%; in the data set with Rattus norvegicus [18], 21.6%. Besides, the IC50 in data set [7] turned out to be 2.39 µM; in [3], 2.99 µM; in [8], 0.24 µM. Further, the Ratio IC50 in the data set listed under Oryctolagus cuniculus is 0.1.
As to `CS(=O)(=O)c1ccc(/C=C2/C(=O)Nc3ccc(F)cc32)cc1`, the IC50 in data set [7] is above 50 µM; in data set [3], 9.42 µM; in [8], 8.99 µM.
The like results for `NS(=O)(=O)c1ccc(/C=C2/C(=O)Nc3cc(Cl)ccc32)cc1` were, in that order, above 50 µM, above 50 µM and above 50 µM.
As to `NS(=O)(=O)c1ccc(/C=C2/C(=O)Nc3ccccc32)cc1`, the IC50 in data set [7], in data set [3] and in data set [8] was above 50 µM in each case.
As to `CS(=O)(=O)c1ccc(/C=C2/C(=O)Nc3ccc(Cl)cc32)cc1`, in the data set with Rattus norvegicus [14], the Activity was 0.88 mm2. Also, in the data set on Mus musculus [15], the inhibition in vivo at 20.24 mg/kg stood at 63.3%. The results for the inhibition in vivo at 10.12 mg/kg with Rattus norvegicus [16], in the data set on Rattus norvegicus [17] and in the data set on Rattus norvegicus [18] were 14.3%, 15.7% and 41.7%, respectively. In addition, the figures for the IC50 in data set [7], in data set [3] and in data set [8] were 3.82 µM, above 50 µM and above 50 µM, respectively.
For the molecule `NS(=O)(=O)c1ccc(/C=C2/C(=O)Nc3ccc(F)cc32)cc1`, the inhibition in vivo at 19.3 mg/kg in the data set on Mus musculus [19] turned out to be 54%. Moreover, the IC50 was 0.18 µM in [7], 9.87 µM in data set [3] and 0.62 µM in data set [8]. For the same molecule, the values for the inhibition in vivo at 9.65 mg/kg in the data set with Rattus norvegicus [20], with Rattus norvegicus [22] and in the data set with Rattus norvegicus [23] were 33.3%, 44.4% and 27.4%, respectively. Further, in the data set on Rattus norvegicus [21], the Activity came out at 0.45 mm2. For the same molecule, the Ratio IC50 in the data set filed under Oryctolagus cuniculus was 3.44.
Turning to `Cc1ccc2c(c1)/C(=C\c1ccc(S(N)(=O)=O)cc1)C(=O)N2`, the IC50 in data set [7], in data set [3] and in [8] was above 50 µM in each case.
As for `NS(=O)(=O)c1ccc(/C=C2/C(=O)Nc3ccc(Br)cc32)cc1`, the results for the IC50 in data set [7], in data set [3] and in data set [8] were 20.9 µM, 10.6 µM and 24.6 µM, respectively. In addition, the Ratio IC50 in the data set listed under Oryctolagus cuniculus turned out to be 1.18.
In the case of `CC(C)(C)c1cc(/C=C2\SC(N)=NC2=O)cc(C(C)(C)C)c1O` [DARBUFELONE MESYLATE], the IC50 is 0.11 µM in data set [7] and 37.6 µM in data set [8].
